Measurements from the supplement of paper PMC10307832.

Columns and labels:
Assay in all cases: relative viability (nuclei count vs DMSO), 5 days (fraction); higher = more cells survive
[1] = compound: C1=CC=C2C(=C1)N=C(S2)C(C#N)C3=NC(=NC=C3)NCCC4=CN=CC=C4 + CC(=O)c1c(C)c2cnc(Nc3ccc(N4CCNCC4)cn3)nc2n(C2CCCC2)c1=O [Palbociclib] (partner 0.5 µM)
How it was run: (§1)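 One day after seeding in 1536-well plates, lung cancer cell lines were dosed by pin tool. Dosing was either single-drug or a fixed anchor-drug dose plus five library-drug doses (not always all listed) in √10 steps. After 5 days, nuclei were stained in one fix-and-stain step and counted on 4× images, and relative viability is the nuclei count of treated wells over that of vehicle wells, given as the median of duplicate plates.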

[2] = compound: C1=CC=C2C(=C1)N=C(S2)C(C#N)C3=NC(=NC=C3)NCCC4=CN=CC=C4 + CS(=O)(=O)N1CCN(Cc2cc3nc(-c4cccc5[nH]ncc45)nc(N4CCOCC4)c3s2)CC1 [Pictilisib] (partner 1 µM)
How it was run: as §1

Vandetanib + Palbociclib = compound: COc1cc2/c(=N/c3ccc(Br)cc3F)nc[nH]c2cc1OCC1CCN(C)CC1 [Vandetanib] + CC(=O)c1c(C)c2cnc(Nc3ccc(N4CCNCC4)cn3)nc2n(C2CCCC2)c1=O [Palbociclib] (partner 0.5 µM)
How it was run: as §1

Vandetanib + Bortezomib = compound: COc1cc2/c(=N/c3ccc(Br)cc3F)nc[nH]c2cc1OCC1CCN(C)CC1 [Vandetanib] + CC(C)C[C@H](NC(=O)[C@H](Cc1ccccc1)NC(=O)c1cnccn1)B(O)O [Bortezomib] (partner 0.002 µM)
How it was run: as §1

| Cell Line | relative viability ([1]; first compound 0.005 µM) | relative viability ([1]; first compound 0.01581 µM) | relative viability ([1]; first compound 0.05 µM) | relative viability ([1]; first compound 0.1581 µM) | relative viability ([1]; first compound 0.5 µM) | relative viability ([2]; first compound 0.005 µM) | relative viability ([2]; first compound 0.01581 µM) | relative viability ([2]; first compound 0.05 µM) | relative viability ([2]; first compound 0.1581 µM) | relative viability ([2]; first compound 0.5 µM) | relative viability (Vandetanib + Palbociclib; first compound 0.02 µM) | relative viability (Vandetanib + Palbociclib; first compound 0.06325 µM) | relative viability (Vandetanib + Palbociclib; first compound 0.2 µM) | relative viability (Vandetanib + Palbociclib; first compound 0.6325 µM) | relative viability (Vandetanib + Palbociclib; first compound 2 µM) | relative viability (Vandetanib + Bortezomib; first compound 0.02 µM) | relative viability (Vandetanib + Bortezomib; first compound 0.06325 µM) | relative viability (Vandetanib + Bortezomib; first compound 0.2 µM) | relative viability (Vandetanib + Bortezomib; first compound 0.6325 µM) | relative viability (Vandetanib + Bortezomib; first compound 2 µM) |
| --- | --- | --- | --- | --- | --- | --- | --- | --- | --- | --- | --- | --- | --- | --- | --- | --- | --- | --- | --- | --- |
| HCC-78 | 0.333 | 0.431 | 0.506 | 0.485 | 0.478 | 0.26 | 0.167 | 0.174 | 0.25 | 0.14 | 0.443 | 0.485 | 0.479 | 0.518 | 0.446 | 0.618 | 0.6 | 0.511 | 0.668 | 0.383 |
| HCC-366 | 0.302 | 0.44 | 0.364 | 0.375 | 0.282 | 0.138 | 0.196 | 0.181 | 0.159 | 0.117 | 0.423 | 0.41 | 0.453 | 0.394 | 0.351 | 1.05 | 0.983 | 0.867 | 0.909 | 1.02 |
| HCC-827 | 0.415 | 0.597 | 0.432 | 0.492 | 0.512 | 0.982 | 0.912 | 0.864 | 1.25 | 1.09 | 0.479 | 0.468 | 0.227 | 0.263 | 0.166 | 1.06 | 1.02 | 1.04 | 0.795 | 0.495 |
| HOP-62 | 0.412 | 0.571 | 0.432 | 0.471 | 0.474 | 0.585 | 0.672 | 0.646 | 0.945 | 0.775 | 0.421 | 0.437 | 0.431 | 0.509 | 0.412 | 0.624 | 0.667 | 0.847 | 0.918 | 0.663 |
| IA-LM |  |  |  |  |  | 0.25 | 0.368 | 0.285 | 0.387 | 0.377 |  |  |  |  |  | 0.727 | 0.831 | 1.01 | 1.06 | 0.953 |
| LC-2-ad | 0.365 | 0.526 | 0.473 | 0.509 | 0.399 | 0.437 | 0.524 | 0.487 | 0.556 | 0.426 | 0.466 | 0.489 | 0.526 | 0.441 | 0.422 | 0.708 | 0.984 | 0.769 | 0.884 | 0.322 |
| LCLC-97TM1 | 0.236 | 0.265 | 0.235 | 0.251 | 0.19 | 0.215 | 0.179 | 0.156 | 0.181 | 0.236 | 0.188 | 0.21 | 0.224 | 0.209 | 0.254 | 0.827 | 0.641 | 0.771 | 0.566 | 0.558 |
| LK-2 | 0.619 | 0.914 | 0.555 | 0.801 | 0.715 |  |  | 0.531 | 0.597 | 0.685 | 0.57 | 0.811 | 0.859 | 0.58 | 0.66 |  |  |  |  |  |
| NCI-H358 | 0.135 | 0.139 | 0.15 | 0.141 | 0.119 | 0.347 | 0.295 | 0.319 | 0.371 | 0.342 | 0.146 | 0.162 | 0.119 | 0.133 | 0.109 |  |  |  |  |  |
| NCI-H522 | 0.95 | 0.958 | 0.96 | 0.917 | 1.09 |  |  |  |  |  | 0.89 | 0.909 | 1.14 | 0.961 | 0.986 |  |  |  |  |  |
| NCI-H596 |  |  |  |  |  | 0.378 | 0.349 | 0.383 | 0.46 | 0.392 |  |  |  |  |  | 0.998 | 1 | 0.965 | 0.717 | 0.958 |
| NCI-H1299 |  |  |  |  |  | 0.682 | 0.941 | 0.807 | 0.875 | 0.834 |  |  |  |  |  | 0.997 | 0.976 | 1.02 | 1.05 | 1.04 |
| NCI-H1395 | 0.616 |  | 0.524 | 0.726 | 0.601 | 0.602 |  | 0.651 | 0.781 | 0.81 | 0.635 | 0.602 | 0.641 | 0.609 | 0.567 |  |  |  |  |  |
| NCI-H1563 |  |  |  |  |  | 0.642 | 0.619 | 0.677 | 0.709 | 0.647 |  |  |  |  |  | 0.821 | 0.807 | 1.12 | 0.797 | 0.845 |
| NCI-H1648 |  | 0.294 |  | 0.331 | 0.281 |  |  |  |  |  | 0.27 | 0.245 | 0.2 | 0.284 | 0.24 |  |  |  |  |  |
| NCI-H1703 |  |  |  |  |  | 0.242 | 0.223 | 0.218 | 0.261 | 0.252 |  |  |  |  |  | 0.379 |  | 0.374 | 0.31 | 0.245 |
| NCI-H1793 |  | 0.344 | 0.29 | 0.319 | 0.276 | 0.329 | 0.275 | 0.353 | 0.267 | 0.352 | 0.325 | 0.305 | 0.302 | 0.296 | 0.261 |  |  |  |  |  |
| NCI-H1944 | 0.314 | 0.373 | 0.293 | 0.32 | 0.318 | 0.369 | 0.33 | 0.355 | 0.362 | 0.319 | 0.323 | 0.343 | 0.322 | 0.276 | 0.303 |  |  |  |  |  |
| NCI-H2170 | 0.284 | 0.391 | 0.38 | 0.43 | 0.34 |  | 0.298 | 0.292 | 0.394 | 0.32 | 0.402 | 0.434 | 0.398 | 0.376 | 0.394 |  |  |  |  |  |
| NCI-H2342 | 0.481 | 0.513 | 0.52 | 0.501 | 0.557 |  |  |  |  |  | 0.525 | 0.507 | 0.518 | 0.477 | 0.569 |  |  |  |  |  |
| SK-MES-1 | 0.311 | 0.292 | 0.315 | 0.334 | 0.288 | 0.365 | 0.454 | 0.277 | 0.352 | 0.374 | 0.349 | 0.292 | 0.243 | 0.332 | 0.294 |  |  |  |  |  |
| SW 900 | 0.441 | 0.496 | 0.412 | 0.586 | 0.458 |  |  |  |  |  | 0.624 | 0.547 |  | 0.48 | 0.409 |  |  |  |  |  |
